Data: patent publication US7446199B2, “Compositions useful as inhibitors of protein kinases” (Vertex Pharmaceuticals Incorporated, priority 2003, dated 2008)

Legend:
Format in all cases: biochemical
[1] = target: GSK-3β, (AA 1-420) (Homo sapiens, UniProt P49841); assay: GSK-3 inhibition assay, coupled enzyme system; conditions: 20 μM ATP, 300 μM peptide, 20 nM GSK-3b, 30° C.; read-out: Ki values (GSK3)
Method in brief: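 Pyruvate kinase/lactate dehydrogenase-coupled NADH assay with 20 nM enzyme, 20 μM ATP and 300 μM peptide in HEPES pH 7.5, 1.5% DMSO, 30° C. Compound (0.002–30 μM, 12-point) preincubated 10 min before ATP start; rates over 10 min gave Ki.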

[2] = target: KDR (Homo sapiens, UniProt P35968); assay: KDR enzyme assay, coupled enzyme assay; conditions: 300 μM ATP, 10 μM poly E4Y, 30 nM KDR, 37° C.
KDR, sequence (P35968 20-1356): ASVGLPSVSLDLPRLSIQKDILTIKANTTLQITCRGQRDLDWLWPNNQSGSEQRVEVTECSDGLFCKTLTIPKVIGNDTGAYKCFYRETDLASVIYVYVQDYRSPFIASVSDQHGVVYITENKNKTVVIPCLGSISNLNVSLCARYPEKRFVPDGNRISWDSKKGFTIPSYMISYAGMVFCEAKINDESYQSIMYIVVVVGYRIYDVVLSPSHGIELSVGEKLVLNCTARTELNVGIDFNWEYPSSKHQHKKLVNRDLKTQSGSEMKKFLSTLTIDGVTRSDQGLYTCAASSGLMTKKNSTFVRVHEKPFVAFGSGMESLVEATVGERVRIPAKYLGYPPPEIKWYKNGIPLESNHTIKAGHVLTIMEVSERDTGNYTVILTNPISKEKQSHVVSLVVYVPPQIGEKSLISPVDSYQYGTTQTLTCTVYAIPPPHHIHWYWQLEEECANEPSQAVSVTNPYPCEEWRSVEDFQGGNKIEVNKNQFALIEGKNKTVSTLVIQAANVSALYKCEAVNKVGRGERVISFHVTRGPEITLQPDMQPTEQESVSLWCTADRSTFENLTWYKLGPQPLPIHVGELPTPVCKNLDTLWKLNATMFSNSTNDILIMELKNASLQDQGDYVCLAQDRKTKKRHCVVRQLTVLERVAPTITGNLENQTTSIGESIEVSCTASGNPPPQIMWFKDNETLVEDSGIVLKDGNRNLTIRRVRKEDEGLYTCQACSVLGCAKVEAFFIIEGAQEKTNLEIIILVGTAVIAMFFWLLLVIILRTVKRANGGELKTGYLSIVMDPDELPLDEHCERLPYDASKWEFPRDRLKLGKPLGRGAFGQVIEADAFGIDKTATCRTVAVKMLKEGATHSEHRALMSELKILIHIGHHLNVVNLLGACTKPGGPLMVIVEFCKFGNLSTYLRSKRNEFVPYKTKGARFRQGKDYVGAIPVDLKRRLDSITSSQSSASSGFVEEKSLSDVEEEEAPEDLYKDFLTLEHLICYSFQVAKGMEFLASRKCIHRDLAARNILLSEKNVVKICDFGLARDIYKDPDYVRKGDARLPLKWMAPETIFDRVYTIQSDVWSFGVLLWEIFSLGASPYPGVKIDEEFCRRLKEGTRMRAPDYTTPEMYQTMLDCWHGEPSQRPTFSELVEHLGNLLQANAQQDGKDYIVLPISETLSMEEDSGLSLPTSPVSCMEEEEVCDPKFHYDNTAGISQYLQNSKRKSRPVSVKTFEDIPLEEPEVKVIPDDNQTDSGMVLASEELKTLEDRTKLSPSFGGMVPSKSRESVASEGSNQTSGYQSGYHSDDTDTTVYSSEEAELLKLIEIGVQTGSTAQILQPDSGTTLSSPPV
Method in brief: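 Coupled enzyme (PK/LDH, NADH) assay with 30 nM KDR in 200 mM HEPES 7.5, 10 mM MgCl2, 25 mM NaCl, 1 mM DTT, 1.5% DMSO; 300 μM ATP, 10 μM poly E4Y. Compound at 30 μM final, preincubated ~10 min at 37 °C before ATP start; rates read over 5 min at 37 °C.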

[3] = target: c-Met (Homo sapiens, UniProt P08581); assay: Ki determination for the inhibition of c-Met, coupled enzyme system; conditions: 200 μM ATP, 10 μM polyGluTyr, 80 nM c-Met, 30° C.
c-Met, sequence (P08581 25-1390): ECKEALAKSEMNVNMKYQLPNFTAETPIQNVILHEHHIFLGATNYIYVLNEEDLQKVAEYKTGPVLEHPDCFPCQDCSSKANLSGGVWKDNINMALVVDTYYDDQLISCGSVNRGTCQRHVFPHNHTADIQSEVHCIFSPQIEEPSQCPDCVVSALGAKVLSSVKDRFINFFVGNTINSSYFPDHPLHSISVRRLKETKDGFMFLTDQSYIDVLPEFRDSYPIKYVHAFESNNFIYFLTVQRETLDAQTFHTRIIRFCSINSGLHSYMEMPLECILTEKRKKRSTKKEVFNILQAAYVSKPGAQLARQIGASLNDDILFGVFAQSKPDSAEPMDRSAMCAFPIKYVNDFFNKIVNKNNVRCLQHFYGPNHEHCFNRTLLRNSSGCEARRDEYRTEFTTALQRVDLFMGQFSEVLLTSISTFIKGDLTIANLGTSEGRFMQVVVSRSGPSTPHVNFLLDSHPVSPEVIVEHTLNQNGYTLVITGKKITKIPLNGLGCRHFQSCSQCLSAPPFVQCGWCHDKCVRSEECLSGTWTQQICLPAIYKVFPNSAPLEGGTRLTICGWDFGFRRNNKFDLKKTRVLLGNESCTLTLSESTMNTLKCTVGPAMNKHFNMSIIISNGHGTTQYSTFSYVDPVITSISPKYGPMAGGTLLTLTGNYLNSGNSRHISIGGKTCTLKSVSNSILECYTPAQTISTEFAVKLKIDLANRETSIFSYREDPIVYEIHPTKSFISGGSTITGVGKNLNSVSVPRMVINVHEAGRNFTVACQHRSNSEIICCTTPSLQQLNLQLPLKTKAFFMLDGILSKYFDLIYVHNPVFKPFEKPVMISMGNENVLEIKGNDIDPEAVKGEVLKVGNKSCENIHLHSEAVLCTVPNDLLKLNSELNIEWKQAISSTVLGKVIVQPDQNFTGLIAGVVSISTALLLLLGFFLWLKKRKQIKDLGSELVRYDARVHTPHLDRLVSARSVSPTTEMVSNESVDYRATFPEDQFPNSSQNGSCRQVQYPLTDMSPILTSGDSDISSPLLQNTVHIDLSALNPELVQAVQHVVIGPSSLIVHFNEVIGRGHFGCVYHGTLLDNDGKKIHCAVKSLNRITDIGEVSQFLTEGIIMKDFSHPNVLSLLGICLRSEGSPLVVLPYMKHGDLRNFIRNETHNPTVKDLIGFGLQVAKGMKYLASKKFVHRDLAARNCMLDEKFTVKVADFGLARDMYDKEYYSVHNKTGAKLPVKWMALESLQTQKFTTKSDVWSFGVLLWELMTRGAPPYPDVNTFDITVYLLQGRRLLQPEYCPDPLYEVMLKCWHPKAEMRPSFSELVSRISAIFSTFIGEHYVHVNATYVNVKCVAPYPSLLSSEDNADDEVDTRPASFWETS
Method in brief: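 Coupled pyruvate kinase/lactate dehydrogenase NADH assay with 80 nM c-Met, 200 μM ATP, 10 μM polyGluTyr in pH 7.5 HEPES, 1.5% DMSO at 30° C. Compound (0.006–12.5 μM final, 12-point) preincubated 10 min; ATP started reaction, rates read over 10 min; Ki derived from rate versus inhibitor concentration.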

GSK-3β, (AA 1-420), sequence (P49841 whole entry, the tested form may be a part): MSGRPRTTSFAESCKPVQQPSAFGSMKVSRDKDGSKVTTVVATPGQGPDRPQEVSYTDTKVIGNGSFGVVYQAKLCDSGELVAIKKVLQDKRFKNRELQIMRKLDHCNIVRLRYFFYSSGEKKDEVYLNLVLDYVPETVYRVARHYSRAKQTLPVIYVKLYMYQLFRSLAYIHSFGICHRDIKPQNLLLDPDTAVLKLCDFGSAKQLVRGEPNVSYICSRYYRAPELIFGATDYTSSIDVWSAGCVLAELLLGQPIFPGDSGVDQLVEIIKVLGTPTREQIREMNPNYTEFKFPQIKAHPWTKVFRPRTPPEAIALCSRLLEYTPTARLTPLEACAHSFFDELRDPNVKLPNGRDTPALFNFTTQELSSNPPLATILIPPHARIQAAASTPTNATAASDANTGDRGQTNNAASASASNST

Ki [1]	Ki [2]	Ki [3]	SMILES
200 to 1000 nM	200 to 1000 nM	< 200 nM	CN1CCN(C(=O)[C@H]2C[C@@H]2c2cnc3[nH]cc(-c4oncc4-c4cccc(F)c4F)c3c2)CC1 (relative stereo) [Compound 142, trans-(2-{3-[4-(2,3-Difluoro-phenyl)-isoxazol-5-yl]-1H-pyrrolo[2,3-b]pyridin-5-yl}-cyclopropyl)-(4-methyl-piperazin-1-yl)-methanone]
	1000 to 12500 nM	200 to 1000 nM	Fc1cccc(-c2cnoc2-c2n[nH]c3ncccc23)c1F [Compound 31, 3-(4-(2,3-difluorophenyl)isoxazol-5-yl)-1H-pyrazolo[3,4-b]pyridine]
1000 to 12500 nM			Fc1cccc(-c2cnoc2-c2c[nH]c3ccc(-c4ccncc4)cc23)c1F [Compound 34, 3-[4-(2,3-Difluoro-phenyl)-isoxazol-5-yl]-5-pyridin-4-yl-1H-indole]
1000 to 12500 nM	200 to 1000 nM	200 to 1000 nM	c1ccc(-c2cnoc2-c2c[nH]c3ncccc23)cc1 [Compound 35, 3-[4-Phenyl-isoxazol-5-yl]-1H-pyrrolo[2,3-b]pyridine]
1000 to 12500 nM	1000 to 12500 nM	200 to 1000 nM	Fc1cc(F)c(F)c(-c2cnoc2-c2c[nH]c3ncccc23)c1 [Compound 39, 3-[4-(2,3,5-Trifluoro-phenyl)-isoxazol-5-yl]-1H-pyrrolo [2,3-b]pyridine]
1000 to 12500 nM	1000 to 12500 nM	200 to 1000 nM	Fc1ccc(F)c(-c2cnoc2-c2c[nH]c3ncccc23)c1F [Compound 41, 3-[4-(2,3,6-Trifluoro-phenyl)-isoxazol-5-yl]-1H-pyrrolo [2,3-b]pyridine]
200 to 1000 nM	200 to 1000 nM	< 200 nM	Fc1cccc(-c2cnoc2-c2c[nH]c3ncc(Cl)cc23)c1F [Compound 44, 3-[4-(2,3-Difluoro-phenyl)-isoxazol-5-yl]-5-chloro-1H-pyrrolo[2,3-b]pyridine]
1000 to 12500 nM	200 to 1000 nM	200 to 1000 nM	Fc1cnc2[nH]cc(-c3oncc3-c3cccc(F)c3F)c2c1 [Compound 45, 3-[4-(2,3-Difluoro-phenyl)-isoxazol-5-yl]-5-fluoro-1H-pyrrolo[2,3-b]pyridine]
1000 to 12500 nM	200 to 1000 nM	< 200 nM	Cc1cnc2[nH]cc(-c3oncc3-c3cccc(F)c3F)c2c1 [Compound 46, 3-[4-(2,3-Difluoro-phenyl)-isoxazol-5-yl]-5-methyl-1H-pyrrolo[2,3-b]pyridine]
1000 to 12500 nM	200 to 1000 nM	200 to 1000 nM	OCc1cnc2[nH]cc(-c3oncc3-c3cccc(F)c3F)c2c1 [Compound 55, {3-[4-(2,3-Difluoro-phenyl)-isoxazol-5-yl]-1H-pyrrolo[2,3-b]pyridin-5-yl}-methanol]
1000 to 12500 nM		200 to 1000 nM	Fc1cccc(-c2cnoc2-c2c[nH]c3nc(Cl)c(-c4ccncc4)cc23)c1F [Compound 103, 6-Chloro-3-[4-(2,3-difluoro-phenyl)-isoxazol-5-yl]-5-pyridin-4-yl-1H-pyrrolo[2,3-b]pyridine]
1000 to 12500 nM	200 to 1000 nM	200 to 1000 nM	O=C(c1cnc2[nH]cc(-c3oncc3-c3cccc(F)c3F)c2c1)N1CCCC1 [Compound 104, {3-[4-(2,3-Difluoro-phenyl)-isoxazol-5-yl]-1H-pyrrolo[2,3-b]pyridin-5-yl}-pyrrolidin-1-yl-methanone]
1000 to 12500 nM		200 to 1000 nM	COc1cnc2[nH]cc(-c3nncn3-c3cccc(F)c3F)c2c1 [Compound 108, 3-[4-(2,3-Difluoro-phenyl)-4H-[1,2,4]triazol-3-yl]-5-methoxy-1H-pyrrolo[2,3-b]pyridine]
1000 to 12500 nM	1000 to 12500 nM	200 to 1000 nM	Fc1cccc(-n2cnnc2-c2c[nH]c3ncc(-c4ccc(N5CCNCC5)nc4)cc23)c1F [Compound 111, 3-[4-(2,3-Difluoro-phenyl)-4H-[1,2,4]triazol-3-yl]-5-(6-piperazin-1-yl-pyridin-3-yl)-1H-pyrrolo[2,3-b]pyridine]
200 to 1000 nM	1000 to 12500 nM	200 to 1000 nM	Fc1cccc(-c2cnoc2-c2c[nH]c3ncc(CCn4cncn4)cc23)c1F [Compound 132, 3-[4-(2,3-Difluoro-phenyl)-isoxazol-5-yl]-5-(2-[1,2,4]triazol-1-yl-ethyl)-1H-pyrrolo[2,3-b]pyridine]
< 200 nM	1000 to 12500 nM	< 200 nM	CN(C)C1CCC(c2cnc3[nH]cc(-c4oncc4-c4cccc(F)c4F)c3c2)CC1 (stereo not shown) [Compound 141, (4-{3-[4-(2,3-Difluoro-phenyl)-isoxazol-5-yl]-1H-pyrrolo[2,3-b]pyridin-5-yl}-cyclohexyl)-dimethylamine]
1000 to 12500 nM	200 to 1000 nM	< 200 nM	NC(=O)c1ccc(-c2cnc3[nH]cc(-c4oncc4-c4cccc(F)c4F)c3c2)cc1 [Compound 153]
1000 to 12500 nM	< 200 nM	< 200 nM	OB(O)c1cnc2[nH]cc(-c3oncc3-c3cccc(F)c3F)c2c1 [Compound 154]
< 200 nM	< 200 nM	< 200 nM	C[N+]1(C)CCN(c2ccc(-c3cnc4[nH]cc(-c5oncc5-c5cccc(F)c5F)c4c3)cc2)CC1 [Compound 155]
